Source: patent publication US6686393B1, “Pharmaceutical compositions having antiviral activity against human cytomegalovirus” (Murdock International Corporation, priority 1990, dated 2004)
“Also recorded” adds a separate entry of the source. Read-outs that look alike come from different tables or passages of the source.

Assays:
[1] = system: human cytomegalovirus (HCMV), strain AD-169; assay: Antiviral test (plaque reduction) versus HCMV, strain AD-169, in MRC-5 cells; format: cell-based
[2] = 10 μg/ml, Example 2, ethanol stock (protohypericin in DMSO), cells exposed 6 or more days
[3] = Example 2, cells exposed 6 or more days
[4] = Table 9 summary, two values = two experiments
[5] = Human betaherpesvirus 5, AD169, MRC5, read-out: % Reduction

Row | Compound | Percent Inhibition of Plaque Numbers (Compared to Virus Controls) ([1]; 0.01 μg/ml, Example 2) [%] | Percent Inhibition of Plaque Numbers (Compared to Virus Controls) ([1]; 0.032 μg/ml, Example 2) [%] | Percent Inhibition of Plaque Numbers (Compared to Virus Controls) ([1]; 0.1 μg/ml, Example 2) [%] | Percent Inhibition of Plaque Numbers (Compared to Virus Controls) ([1]; 0.32 μg/ml, Example 2) [%] | Percent Inhibition of Plaque Numbers (Compared to Virus Controls) ([1]; 1.0 μg/ml, Example 2) [%] | Percent Inhibition of Plaque Numbers (Compared to Virus Controls) ([1]; 3.2 μg/ml, Example 2) | Percent Inhibition of Plaque Numbers (Compared to Virus Controls) [1, 2] | CD50 (MRC-5 cells; [3]) [µg/mL] | CD50 (MRC-5 cells; [4]) [µg/mL] | CD50 (MRC-5 cells; human) [µg/mL] | further results
1 | O=C(O)c1cc(O)c2c(c1)[C@@H]([C@H]1c3cc(C(=O)O)cc(O)c3C(=O)c3c(O[C@@H]4O[C@H](CO)[C@@H](O)[C@H](O)[C@H]4O)cccc31)c1cccc(O[C@@H]3O[C@H](CO)[C@@H](O)[C@H](O)[C@H]3O)c1C2=O [Meso Sennoside B, sennoside B] | 0 | 0 | 0 | 0 | 0 | 0% | 0% | >10 | >10 |  | 
2 | O=C1c2cccc(O)c2C(=O)c2cccc(O)c21 [Anthrarufin, anthrarufin] |  |  |  |  |  |  |  |  |  | >10 | inhibition at 0.01 µg/mL [1, 5]: 0%; inhibition at 0.032 µg/mL [1, 5]: 0%; inhibition at 0.1 µg/mL [1, 5]: 0%; inhibition at 0.32 µg/mL [1, 5]: 0%; inhibition at 1 µg/mL [1, 5]: 0%; inhibition at 3.2 µg/mL [1, 5]: 0%; inhibition at 10 µg/mL [1, 5]: 0%
3 | Cc1cc(O)c2c(c1)C(C1c3cc(C)cc(O)c3C(=O)c3c(O)cc(O)cc31)c1cc(O)cc(O)c1C2=O (stereo not drawn) [Emodin Bianthrone (meso), emodin bianthrone] | 0 | 0 | 0 | 0 | 32 | toxic | toxic | 1.8 | 1.8 |  | 
4 | protohypericin |  |  |  |  |  |  |  | 5.6 | 5.6 |  | Activity against HCMV [1]: show activity; also recorded: good biological activity; Activity in initial screening against HCMV in vitro [1]: active; Percent Inhibition of Plaque Numbers (Compared to Virus Controls) [1]: 0%
5 | O=C(O)c1cc(O)c2c(c1)[C@H]([C@H]1c3cc(C(=O)O)cc(O)c3C(=O)c3c(O[C@@H]4O[C@H](CO)[C@@H](O)[C@H](O)[C@H]4O)cccc31)c1cccc(O[C@@H]3O[C@H](CO)[C@@H](O)[C@H](O)[C@H]3O)c1C2=O [(+)Sennoside A, sennoside A] | 0 | 0 | 0 | 0 | 0 | 0% | 0% | >10 | >10 |  | 
6 | Cc1cc(O)c2c(c1)C(=O)c1cccc(O)c1C2=O [Chrysophanol, chrysophanol] |  |  |  |  |  |  |  |  |  | >10 | inhibition at 0.01 µg/mL ([1]; Human betaherpesvirus 5, AD169, MRC5, 0.01 μg/ml, Example 2, read-out: Percent Inhibition of Plaque Numbers (Compared to Virus Controls)): 0%; inhibition at 0.032 µg/mL ([1]; Human betaherpesvirus 5, AD169, MRC5, 0.032 μg/ml, Example 2, read-out: Percent Inhibition of Plaque Numbers (Compared to Virus Controls)): 0%; inhibition at 0.1 µg/mL ([1]; Human betaherpesvirus 5, AD169, MRC5, 0.1 μg/ml, Example 2, read-out: Percent Inhibition of Plaque Numbers (Compared to Virus Controls)): 0%; inhibition at 0.32 µg/mL ([1]; Human betaherpesvirus 5, AD169, MRC5, 0.32 μg/ml, Example 2, read-out: Percent Inhibition of Plaque Numbers (Compared to Virus Controls)): 0%; inhibition at 1 µg/mL ([1]; Human betaherpesvirus 5, AD169, MRC5, 1.0 μg/ml, Example 2, read-out: Percent Inhibition of Plaque Numbers (Compared to Virus Controls)): 0%; inhibition at 3.2 µg/mL ([1]; Human betaherpesvirus 5, AD169, MRC5, 3.2 μg/ml, Example 2, read-out: Percent Inhibition of Plaque Numbers (Compared to Virus Controls)): 0%; inhibition at 10 µg/mL ([1]; Human betaherpesvirus 5, AD169, MRC5, 10 μg/ml, Example 2, ethanol stock (protohypericin in DMSO), cells exposed 6 or more days, read-out: Percent Inhibition of Plaque Numbers (Compared to Virus Controls)): 0%
